This is an account of results in PMC6581720 (Frontiers in Microbiology, 2019).

Broadly, the Kd is the equilibrium constant for the complex coming apart. Low values mean higher affinity, high ones lower affinity.

The assay addresses T1, SpoIVB (sporulation factor IV B protease) (Bacillus subtilis, UniProt P17896, S378A).
T1 construct: truncated SpoIVB (residues Thr75-Ser426), N-terminal 6 × His and mMBP fusion tags
The assay can be described thus: microscale thermophoresis (MST), RED-NHS labelled protein. The format is binding. For orientation: Microscale thermophoresis detects binding through changes in fluorescence in a small temperature gradient.

T1 sequence (P17896 75-426 S378A): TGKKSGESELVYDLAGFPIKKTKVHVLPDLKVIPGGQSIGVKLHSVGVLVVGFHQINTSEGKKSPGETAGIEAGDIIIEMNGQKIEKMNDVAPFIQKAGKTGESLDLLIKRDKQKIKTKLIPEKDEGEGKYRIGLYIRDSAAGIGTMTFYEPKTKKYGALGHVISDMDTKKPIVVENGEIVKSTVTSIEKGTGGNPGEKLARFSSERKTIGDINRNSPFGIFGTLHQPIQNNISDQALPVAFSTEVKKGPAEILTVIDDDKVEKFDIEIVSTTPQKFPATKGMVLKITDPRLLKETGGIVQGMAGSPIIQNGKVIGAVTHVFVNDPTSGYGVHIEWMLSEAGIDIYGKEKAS

Molecule `N=C(N)c1ccccc1` [benzamidine] returned a Kd of 660 ± 28 µM.
